# According to paper PMC4421842 (Nature Communications, 2015):
# Values joined by “and” are separate entries in the source; they are usually repeats but may differ in a detail not shown here. Identical values can stand only once. “Also recorded” adds a separate entry of the source. Like-named read-outs stand apart in the source and are kept apart here.
# Legend:
# E. faecium = experiment: microbe, parasite or virus in culture; format: cell-based; settings: Enterococcus faecium, E. faecium
# [1] = test system: WT S. aureus (ATCC 29213, WT); experiment: microbe, parasite or virus in culture; format: cell-based; settings: WT GyrA and WT ParC, three independent replicates
# E. coli = experiment: microbe, parasite or virus in culture; format: cell-based; settings: Escherichia coli, ATCC25922, E. coli ATCC 25922; gyrA none, parC none
# Excerpt: (§1) MRSA and P. aeruginosa isolates were from Cubist Pharmaceuticals (Lexington, MA). VRE isolates were from a previously published collection. E. coli strains were obtained either from ATCC or Professor Cari Vanderpool (UIUC). A. baumannii isolates were obtained from Dr John Quale[51].
# (§2) Mueller Hinton (MH) broth was used.
# [2] = test system: normal (that is, non-cancerous) cell lines; design: method as in PMID 10993200; settings: previously published data; cited from earlier work
# A. baumannii = experiment: MIC, microdilution broth, A. baumannii; format: cell-based
# Excerpt: as §1, §2
# [3] = test system: resistant strains of ATCC 29213; experiment: microbe, parasite or virus in culture; format: cell-based, S. aureus; settings: Staphylococcus aureus
# P. aeruginosa = experiment: MIC, microdilution broth, P. aeruginosa; format: cell-based
# Excerpt: as §1, §2
# [4] = Pharmacokinetic assessment; format: in vivo, C57BL/6 mice; settings: for Cmax: female, C57BL/6, mouse
# Procedure: (§3) The animal studies (PK, in-vivo toxicity and in-vivo efficacy) were carried out in strict accordance with the recommendations in the Guide for the Care and Use of Laboratory Animals of the National Institutes of Health. […] In these studies, 10- to 12-week-old female C57BL/6 mice purchased from Charles River were used. DNM, DNM-2 and DNM-3 were formulated as slurries at 8.3 mg ml^−1 in 25% Cremophor RH40/water (v/v). Before beginning the pharmacokinetic assessment, mice were first tested for their ability to tolerate the DNM, DNM-2 and DNM-3 at 50 mg kg^−1 (p.o.). […] At specified time points, mice were killed and blood was collected, centrifuged and the serum was frozen at −80 °C until analysis. The proteins in a 50-μl aliquot of serum were precipitated by the addition of 50 μl of acetonitrile and the sample was centrifuged to remove the proteins. Serum concentrations of DNM, DNM-2 and DNM-3 were determined by HPLC. PK parameters were determined using GraphPad Prism Version 5.00 for Windows.
# WT E. coli DNA gyrase = target: T1, WT E. coli DNA gyrase (Escherichia coli, UniProt P0AES4+P0AES6); format: biochemical; settings: DNA cleavage assay
# T1 construct: His tag (pTRCHisA vector; purified on Ni-NTA); made in house; host or cells: E. coli One Shot BL21 Star (DE3)
# E. faecalis = experiment: microbe, parasite or virus in culture; format: cell-based; settings: E. faecalis
# MRSA clinical isolates = experiment: microbe, parasite or virus in culture; format: cell-based, S. aureus; settings: for MIC: Staphylococcus aureus, MRSA
# Summary of the method: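 Broth microdilution per CLSI guidelines in Mueller Hinton broth, run in triplicate against clinical MRSA isolates.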
# VRE clinical isolates = experiment: MIC, VRE clinical isolates panel (summary by GyrA mutation); format: cell-based, Enterococcus; settings: for MIC: Enterococcus, VRE
# Excerpt: as §1, §2
# [5] = test system: FQR S. aureus (NRS3, FQR); experiment: MIC, microdilution broth assay, FQR MRSA NRS3; format: cell-based; settings: NRS3, S84L GyrA and S80F ParC, three independent replicates
# physchem = settings: pH 7.4
# Procedure: Three independent replicates of each compound were performed.
# S83R E. coli DNA gyrase = target: T2, S83R E. coli DNA gyrase (Escherichia coli, UniProt P0AES4+P0AES6, S83R); format: biochemical; settings: DNA cleavage assay
# T2 construct: His tag (pTRCHisA vector; purified on Ni-NTA); made in house; host or cells: E. coli One Shot BL21 Star (DE3)
# Ent. Spp. = experiment: MIC, microdilution broth, Ent. Spp. VRE clinical isolate; format: cell-based; settings: Enterococcus, C28036, gyrA Ser83Ile, parC Ser80Ile
# Excerpt: as §1, §2
# S. aureus (ATCC 29213) = experiment: Resistant mutant generation (resistance frequency); format: cell-based; settings: development of DNM resistance in high-level CIP-resistant strains
# [6] = Tolerability in mice (maximal tolerated dose); format: in vivo
# Procedure: as §3
compound,measurement,setting,value
"Cc1cc(=O)n(C)c2c3c4c(cc12)c(C)cc(=O)n4CO3 [DNM, deoxynybomycin]",MIC,"E. faecium; C21190, gyrA Ser83 Arg, parC Ser80Ile",> 1 µg/mL
same,MIC,"E. faecium; C27282, gyrA Ser83 Arg, parC Ser80Arg",> 1 µg/mL
same,MIC,"E. faecium; S34, gyrA Ser83Ile, parC Ser80 Arg",1 µg/mL
same,MIC,"E. faecium; S226, gyrA Ser83Ile, parC Ser80Ile",0.25 µg/mL
same,MIC,"E. faecium; S235, gyrA Ser83Ile, parC Ser80Ile",0.125 µg/mL
same,MIC,"E. faecium; S344, gyrA Ser83Ile, parC Ser80Ile",0.25 µg/mL
same,MIC,"E. faecium; S557, gyrA Ser83Ile, parC Ser80Ile",0.25 µg/mL
same,MIC,"E. faecium; U63, gyrA Ser83 Arg, parC Ser80Ile",1 µg/mL
same,MIC,"E. faecium; U275, gyrA Ser83Cys Glu87Gly, parC Ser80Ile",1 µg/mL
same,MIC,"E. faecium; U464, gyrA Ser83 Arg, parC Ser80Ile",1 µg/mL
same,MIC,"E. faecium; U503, gyrA Ser83 Arg, parC Ser80Ile",> 1 µg/mL
same,MIC,"E. faecium; U563, gyrA Ser83 Arg, parC Ser80Ile",> 1 µg/mL
same,MIC against S. aureus 29213,[1]; ATCC 29213,modest activity and 2 μg ml^−1
same,MIC,"[1]; Staphylococcus aureus, ATCC29213, ATCC 29213, read-out: MIC against S. aureus 29213",> 1 µg/mL
same,MIC,E. coli,> 4 µg/mL
same,toxicity to normal (non-cancerous) cell lines,[2],non-toxic
same,activity against wild-type (WT) or FQR Acinetobacter baumannii,A. baumannii,no detectable activity
same,MIC,"A. baumannii; A. baumannii KB304, gyrA S83L",> 4 µg/mL
same,MIC,A. baumannii; Acinetobacter baumannii,> 4 µg/mL
same,MIC,"A. baumannii; Acinetobacter baumannii, ATCC19606, A. baumannii ATCC 19606, read-out: MIC",> 4 µg/mL
same,MIC,"[3]; ATCC29213, high-level CIP-resistant strains, second step, S84L mutation in GyrA",0.03 to 0.06 µg/mL
same,MIC,"[3]; ATCC29213, low-level CIP-resistant strains, first step, WT gyrA, mutation in ParC (for example E84K or S80F)",> 1 µg/mL
same,MIC,"[3]; ATCC29213, resistance cycle strain, WT gyrA, WT parC (Fig. 4a)",> 1 µg/mL
same,activity against wild-type (WT) or FQR P. aeruginosa,P. aeruginosa,no detectable activity
same,MIC,P. aeruginosa; PA1586 (CIP resistant clinical isolate),> 4 µg/mL
same,MIC,"P. aeruginosa; Pseudomonas aeruginosa, P. aeruginosa PAO1, read-out: MIC",> 4 µg/mL
same,MIC,"P. aeruginosa; Pseudomonas aeruginosa, read-out: MIC",> 4 µg/mL
same,Cmax,"[4]; C57/BL6 mice, 50 mg kg-1 oral gavage, serum, read-out: Cmax",< 60 ng/mL
same,Cmax,"[4]; mice, 50 mg kg^−1 oral dose, serum, read-out: Cmax (peak serum concentration)",< 200 nM
same,oral bioavailability / serum exposure,"[4]; mice, 50 mg kg^−1 oral dose",very low serum exposure; also recorded: not absorbed to any appreciable degree
same,Cmax (peak serum concentration),"[4]; mice, 50 mg kg^−1 oral dose, serum",< 60 ng/mL
same,inhibition of WT DNA gyrase (increase in L or OC DNA),WT E. coli DNA gyrase,poor inhibitors of WT DNA gyrase
same,MIC,"E. faecalis; ATCC 29212, gyrA WT, parC WT",> 1 µg/mL
same,MIC,"E. faecalis; Enterococcus faecalis, ATCC19433, ATCC 19433, gyrA WT, parC WT",> 1 µg/mL
same,MIC,"E. faecalis; Enterococcus faecalis, ATCC29212, ATCC 29212, gyrA WT, parC WT",> 1 µg/mL
same,MIC,"E. faecalis; Enterococcus faecalis, S206, gyrA Ser83 Arg, parC Ser80Ile",1 µg/mL
same,MIC,"MRSA clinical isolates; strain SAU.1118, read-out: MIC",1 µg/mL
same,MIC,"MRSA clinical isolates; strain SAU.2996, read-out: MIC",0.25 µg/mL
same,MIC,"MRSA clinical isolates; strain SAU.3017, read-out: MIC",1 µg/mL
same,MIC,"MRSA clinical isolates; strain SAU.3021, read-out: MIC",0.031 µg/mL
same,MIC,"MRSA clinical isolates; strain SAU.3025, read-out: MIC",0.031 µg/mL
same,MIC,"MRSA clinical isolates; strain SAU.419, read-out: MIC",0.125 µg/mL
same,MIC,"MRSA clinical isolates; strain SAU.42, read-out: MIC",1 µg/mL
same,MIC,"MRSA clinical isolates; strain SAU.446, read-out: MIC",0.25 µg/mL
same,MIC,MRSA clinical isolates; strain SAU.447,0.063 µg/mL
same,MIC,"MRSA clinical isolates; strain SAU.492, gyrA Ser84Leu, parC Ser80Tyr",0.063 µg/mL
same,MIC,"MRSA clinical isolates; strain SAU.493, gyrA Ser84Leu, parC Ser80Phe",0.063 µg/mL
same,MIC,"MRSA clinical isolates; strain SAU.494, gyrA Ser84Leu, parC Ser80Phe",0.063 µg/mL
same,MIC,"MRSA clinical isolates; strain SAU.495, gyrA Ser84Leu, parC Ser80Phe",0.063 µg/mL
same,MIC,"MRSA clinical isolates; strain SAU.496, gyrA Ser84Leu, parC Ser80Phe",0.063 µg/mL
same,MIC,"MRSA clinical isolates; strain SAU.555, read-out: MIC",0.125 µg/mL
same,MIC,"MRSA clinical isolates; strain SAU.708, gyrA Ser84Leu, parC Ser80Phe Glu84Lys",0.063 µg/mL
same,MIC,"MRSA clinical isolates; strain SAU.709, gyrA Ser84Leu, parC Ser80Tyr Glu84Gly",0.063 µg/mL
same,MIC,"MRSA clinical isolates; strain SAU.846, read-out: MIC",0.031 µg/mL
same,Sensitivity of MRSA clinical isolates,MRSA clinical isolates; panel of MRSA clinical isolates (n=21),sensitive
same,MIC,VRE clinical isolates; VRE harbouring the S83I mutation in GyrA,0.125 to 1 µg/mL
same,MIC,VRE clinical isolates; VRE with the S83R mutation in GyrA,≥ 1 µg/mL
same,Sensitivity of VRE clinical isolates,VRE clinical isolates; panel of VRE clinical isolates (n=22),sensitive
same,MIC against S. aureus NRS3,[5],0.03 µg/mL
same,MIC,"[5]; Staphylococcus aureus, read-out: MIC against S. aureus NRS3",0.03 µg/mL
same,solubility at 1 h,physchem,9 µM
same,inhibition of S83R DNA gyrase,S83R E. coli DNA gyrase,buildup of OC DNA similar to that seen with S83L DNA gyrase only at a slightly higher concentration or longer time points
same,MIC,Ent. Spp.,0.25 µg/mL
same,resistance frequencies,S. aureus (ATCC 29213),1 × 10^−10 to 7 × 10^−10
same,tolerability,"[6]; increasing doses, highest dose evaluated 50 mg kg^−1 by oral gavage",well tolerated up to the highest dose evaluated
same,maximal tolerated dose,[6]; oral gavage,> 50 mg/kg
